Source: patent publication US20070128217A1 (priority 2003, published 2007)

Legend:
[1] = tested on: antibodies in sera from SARS patients (sera 1a, 1b, 2, 6, 37, 62, London, SARS-yellow, SARS-green); format: binding, human; design: Binding of serum 6 to linear peptides of protein X1 of SARS-CoV Urbani / Binding of serum 37 to linear peptides of protein X1 of SARS-CoV Urbani / Binding of serum 6 to looped/cyclic peptide (PEPSCAN-ELISA) / Binding of serum 37 to looped/cyclic peptide (PEPSCAN-ELISA) / Binding of serum 37 to looped/cyclic peptides of protein X1 of SARS-CoV Urbani / Binding of serum 6 to linear peptides of protein X2 / Binding of serum 37 to linear peptides of protein X2 / Binding of serum 37 to looped/cyclic peptides of protein X2 of SARS-CoV Urbani / Binding of serum 6 to linear peptides of protein M of SARS-CoV Urbani / Binding of serum 37 to linear peptides of protein M of SARS-CoV Urbani / Binding of serum 6 to looped/cyclic peptides of protein M of SARS-CoV Urbani / Binding of serum 37 to looped/cyclic peptides of protein M of SARS-CoV Urbani / Binding of serum 6 to linear peptides of protein X3 of SARS-CoV Urbani / Binding of serum 37 to linear peptides of protein X3 of SARS-CoV Urbani / Binding of serum 37 to looped/cyclic peptides of protein X3 of SARS-CoV Urbani / Binding of serum 6 to linear peptides of protein X4 of SARS-CoV Urbani / Binding of serum 37 to linear peptides of protein X4 of SARS-CoV Urbani / Binding of serum 37 to looped/cyclic peptides of protein X4 of SARS-CoV Urbani / Binding of serum 6 to linear peptides of protein X5 of SARS-CoV Urbani / Binding of serum 37 to linear peptides of protein X5 of SARS-CoV Urbani / Binding of serum 37 to looped/cyclic peptides of protein X5 of SARS-CoV Urbani / Binding of serum 6 to linear peptides of protein N of SARS-CoV Urbani / Binding of serum 37 to linear peptides of protein N of SARS-CoV Urbani / Binding of serum 6 to linear peptide (PEPSCAN-ELISA) / Binding of serum 1a to looped/cyclic peptides of protein N of SARS-CoV Urbani / Binding of serum 1b to looped/cyclic peptides of protein N of SARS-CoV Urbani / Binding of serum 2 to looped/cyclic peptides of protein N of SARS-CoV Urbani / Binding of serum 6 to looped/cyclic peptides of protein N of SARS-CoV Urbani / Binding of serum 37 to looped/cyclic peptides of protein N of SARS-CoV Urbani / Binding of serum 62 to looped/cyclic peptides of protein N of SARS-CoV Urbani / Binding of serum London to looped/cyclic peptides of protein N of SARS-CoV Urbani / Binding of serum SARS-green to looped/cyclic peptides of protein N of SARS-CoV Urbani: unit not given here
[2] = tested on: control sera (pooled serum of ten healthy LUMC hospital workers; commercial negative donor pooled serum from the Dutch bloodbank); format: binding, human; design: Binding of Control serum LUMC to linear peptides / Binding of Control serum Blood-bank to linear peptides / Binding of Control serum LUMC to looped peptides / Binding of Control Serum Blood-Bank to Looped peptides / Binding of Control serum LUMC to linear peptides of the protein M of SARS-CoV Urbani / Binding of Control serum Blood-bank to linear peptides of the protein M of SARS-CoV Urbani / Binding of Control serum LUMC to looped peptides of the protein M of SARS-CoV Urbani / Binding of Control Serum Blood-Bank to Looped peptides of the protein M of SARS-CoV Urbani: unit not given here
[3] = tested on: rabbit serum obtained by immunizing a rabbit with the SARS-CoV strain Frankfurt 1; format: binding; design: Binding of a rabbit serum to linear peptides / Binding of a rabbit serum to looped peptides / Rabbit serum linear peptides / Rabbit serum looped peptides / Binding of a rabbit serum to linear peptides of protein N of SARS-CoV Urbani (Rabbit serum linear peptides) / Binding of a rabbit serum to looped/cyclic peptides of protein N of SARS-CoV Urbani (Rabbit serum looped peptides): unit not given here

LKMLHSSSLTSLLKT
Binding of serum 1a to linear peptides of protein X2 [1]: 0.6 | Binding of serum 1a to looped/cyclic peptides of protein X2 of SARS-CoV Urbani [1]: 0.5 | Binding of serum 1b to linear peptides of protein X2 [1]: 0.5 | Binding of serum 1b to looped/cyclic peptides of protein X2 of SARS-CoV Urbani [1]: 0.5 | Binding of serum 2 to linear peptides of protein X2 [1]: 0.6 | Binding of serum 2 to looped/cyclic peptides of protein X2 of SARS-CoV Urbani [1]: 0.3 | Binding of serum 6 to linear peptides of protein X2 [1]: 0.4 | Binding of serum 6 to looped/cyclic peptides of protein X2 of SARS-CoV Urbani [1]: 0.3 | Binding of serum 37 to linear peptides of protein X2 [1]: 0.6 | Binding of serum 37 to looped/cyclic peptides of protein X2 of SARS-CoV Urbani [1]: 0.4 | Binding of serum 62 to linear peptides of protein X2 [1]: 0.6 | Binding of serum 62 to looped/cyclic peptides of protein X2 of SARS-CoV Urbani [1]: 0.6 | Binding of serum London to linear peptides of protein X2 [1]: 0.5 | Binding of serum London to looped/cyclic peptides of protein X2 of SARS-CoV Urbani [1]: 0.2 | Binding of serum SARS-green to linear peptides of protein X2 [1]: 0.5 | Binding of serum SARS-green to looped/cyclic peptides of protein X2 of SARS-CoV Urbani [1]: 0.3 | Binding of serum SARS-yellow to linear peptides of protein X2 [1]: 0.6 | Binding of serum SARS-yellow to looped/cyclic peptides of protein X2 of SARS-CoV Urbani [1]: 0.2 | Binding of Control Serum Blood-Bank to Looped peptides [2]: 0.6 | Binding of Control serum Blood-bank to linear peptides [2]: 0.7 | Binding of Control serum LUMC to linear peptides [2]: 0.4 | Binding of Control serum LUMC to looped peptides [2]: 0.5 | Binding of a rabbit serum to linear peptides [3]: 0.2 | Binding of a rabbit serum to looped peptides [3]: 0.4

AWLCALGKVLPFHRW
Binding of serum 1a to linear peptides of protein X5 of SARS-CoV Urbani [1]: 0.8 | Binding of serum 1a to looped/cyclic peptides of protein X5 of SARS-CoV Urbani [1]: 0.4 | Binding of serum 1b to linear peptides of protein X5 of SARS-CoV Urbani [1]: 0.6 | Binding of serum 1b to looped/cyclic peptides of protein X5 of SARS-CoV Urbani [1]: 0.3 | Binding of serum 2 to linear peptides of protein X5 of SARS-CoV Urbani [1]: 0.8 | Binding of serum 2 to looped/cyclic peptides of protein X5 of SARS-CoV Urbani [1]: 0.5 | Binding of serum 6 to linear peptides of protein X5 of SARS-CoV Urbani [1]: 0.6 | Binding of serum 6 to looped/cyclic peptides of protein X5 of SARS-CoV Urbani [1]: 0.4 | Binding of serum 37 to linear peptides of protein X5 of SARS-CoV Urbani [1]: 0.8 | Binding of serum 37 to looped/cyclic peptides of protein X5 of SARS-CoV Urbani [1]: 0.5 | Binding of serum 62 to linear peptides of protein X5 of SARS-CoV Urbani [1]: 0.9 | Binding of serum 62 to looped/cyclic peptides of protein X5 of SARS-CoV Urbani [1]: 0.7 | Binding of serum London to linear peptides of protein X5 of SARS-CoV Urbani [1]: 0.8 | Binding of serum London to looped/cyclic peptides of protein X5 of SARS-CoV Urbani [1]: 0.2 | Binding of serum SARS-green to linear peptides of protein X5 of SARS-CoV Urbani [1]: 0.6 | Binding of serum SARS-green to looped/cyclic peptides of protein X5 of SARS-CoV Urbani [1]: 0.5 | Binding of serum SARS-yellow to linear peptides of protein X5 of SARS-CoV Urbani [1]: 0.2 | Binding of serum SARS-yellow to looped/cyclic peptides of protein X5 of SARS-CoV Urbani [1]: 0.5 | Binding of Control Serum Blood-Bank to Looped peptides [2]: 0.4 | Binding of Control serum Blood-bank to linear peptides [2]: 0.9 | Binding of Control serum LUMC to linear peptides [2]: 0.6 | Binding of Control serum LUMC to looped peptides [2]: 0.5 | Rabbit serum linear peptides [3]: 0.8 | Rabbit serum looped peptides [3]: 0.6
